Where two headings read alike, the source gives them in different places.
Experiments:
[1] = test system: luciferase-reporter HIV-1 NL4-3 pseudotyped with HxBc2 envelope produced in 293T cells; experiment: microbe, parasite or virus in culture
[2] = test system: HIV-1 Ba-L; experiment: Antiviral activity of additional compounds (Tables 6 and 7); assay type: cell-based; conditions: for IC50 / IC90: Human immunodeficiency virus 1, BAL
Description: (§1) HIV human peripheral blood mononuclear cell (PBMC) assays were performed as described previously (Lanier et al., 2010, Antimicrob Agents Chemother 54:2901-2909 and Ptak et al., 2008, Antimicrob Agents Chemother 52:1302-1317). Briefly, fresh PBMCs, seronegative for HIV and hepatitis B virus (HBV), were isolated from blood samples of the screened donors (Biological Specialty Corporation, Colmar, Pa.) by using lymphocyte separation medium (LSM; density, 1.078±0.002 g/ml; Cellgro; Mediatech, Inc.) by following the manufacturer's instructions. Cells were stimulated by incubation in 4 μg/mL phytohemagglutinin (PHA; Sigma) for 48 to 72 h. Mitogenic stimulation was maintained by the addition of 20 U/mL recombinant human interleukin-2 (rhIL-2; R&D Systems, Inc.) to the culture medium. PHA-stimulated PBMCs from at least two donors were pooled, diluted in fresh medium, and added to 96-well plates at 5×10^4 cells/well. Cells were infected (final multiplicity of infection [MOI] of ≅0.1) in the presence of nine different concentrations of test compounds (triplicate wells/concentration) and incubated for 7 days. To determine the level of virus inhibition, cell-free supernatant samples were collected for analysis of reverse transcriptase activity (Buckheit et al., 1991, AIDS Res Hum Retroviruses 7:295-302). Following removal of supernatant samples, compound cytotoxicity was measured by the addition of 3-(4,5-dimethylthiazol-2-yl)-5-(3-carboxymethoxy-phenyl)-2-(4-sulfophenyl)-2H-tetrazolium (MTS; CellTiter 96 reagent; Promega) by following the manufacturer's instructions.

[3] = test system: HIV-1 NL4-3; experiment: as above; assay type: cell-based; conditions: for IC50 / IC90: Human immunodeficiency virus 1, NL43
Description: as §1

[4] = Compound cytotoxicity in PBMCs (MTS); assay type: cell-based, human; conditions: human, read-out: TC50
Description: as §1

[5] = test system: HIV-1 92BR030; experiment: Anti-HIV efficacy in human PBMCs, reverse transcriptase activity; assay type: cell-based; conditions: HIV-1 92BR030, PBMCs
Description: as §1

[6] = test system: HIV-1 93IN101; experiment: as above; assay type: cell-based; conditions: HIV-1 93IN101, PBMCs
Description: as §1

[7] = test system: SIV MAC251; experiment: Antiviral efficacy in PBMCs, reverse transcriptase activity; assay type: cell-based
[8] = target: T1, HIV-1 MA (Human immunodeficiency virus type 1 group M subtype B, UniProt P03348); experiment: Surface plasmon resonance direct binding to immobilized HIV-1 MA; conditions: CM7 sensor chip, 10 μM (FIG. 14)
T1 construct: His6 (N, cleaved yes); SUMO (N, cleaved yes); made in house; host or cells: Escherichia coli BL21 (DE3) Codon+-RIL
Description: An assay was devised to monitor the interactions of small-molecule compounds to HIV-1 MA using SPR. In this assay, HIV-1LA1 MA was immobilized to the flow cells of a CM5 sensor chip to high density (˜1.3 kRU) or a CM7 sensor chip to high density (19 kRU) using standard amine coupling. A reference surface was similarly created by immobilizing the SUMO protein or a nonspecific antibody ARC4033 (antimouse/rat interferon-γ: BioSource). In small-molecule assays, the buffering system used is important due to the low responses obtained in binding assays. […] A stock solution of the MTI compounds was prepared by dissolving in 100% dimethyl sulfoxide (DMSO) to a final concentration of 10 mM.
To prepare the sample for analysis, 30 μL of the stock solution of the compound of the invention was added to sample preparation buffer (PBS, pH 7.2) to a final volume of 1 mL and mixed thoroughly. Preparation of analyte in this manner ensured that the concentration of DMSO was matched with that of running buffer with 3% DMSO. Lower concentrations of each compound were then prepared by two-fold serial dilutions into running buffer (PBS, 3% DMSO, pH 7.2). These compound dilutions were then injected over the control and MA surfaces at a flow rate of 30 μL min^−, for a 4-min association phase, followed by a 5-min dissociation phase.
In one aspect, owing to the relatively fast dissociation rates of these compounds, regeneration of these surfaces was accomplished by extensive washing of the system followed by a 5 min wait phase, a second wash, and a final 15 min wait phase. To secure complete regeneration, a buffer injection (5 min^on/5 min^off) was performed before each subsequent injection of compound.
Response to a small-molecule compound (NBD-556) specific for HIV-1 gp120 was also monitored to ensure specificity.
Data analysis was performed using BIAEvaluation 4.0 software (GE Healthcare). The responses of a buffer injection and responses from the ARC4033-immobilized reference cell were subtracted to account for nonspecific binding. The average maximum response was generated from a minimum of 3 data sets and was used to define the standard deviation for each compound binding to the HIV-1 MA protein.
The MTI compounds are predicted to interact with HIV-1 MA and thereby disrupt its functioning during the HIV-1 replication cycle. However, it is possible that a compound might exert its action via another mechanism not involving MA. Therefore, studies were performed to determine that the MTI compounds are directed against HIV-1 MA. The direct interaction of compounds CMPD-18, CMPD-17, CMPD-7, and CMPD-14 with HIV-1 MA was assayed using surface plasmon resonance interaction analyses. Wild-type HIV-1 MA protein was overproduced in E. coli using the pETHSUL expression system and purified using successive IMAC strategies, followed by an ion exchange chromatographic step as outlined in Materials and Methods. FIG. 6 illustrates the purification profile of HIV-1 MA. The purified MA was then immobilized onto the surface of a high-capacity CM7 sensor chip. Similarly, the monoclonal antibody ARC4033 (antimouse/rat interferon-γ; BioSource, Invitrogen, Carlsbad, Calif.) was immobilized on a CM7 sensor chip and was used to correct for background binding and instrument and buffer artifacts.

[9] = Human immunodeficiency virus 1, PBMC
[10] = Simian immunodeficiency virus, PBMC

| SMILES | IC50 [2] | IC90 [2] | IC50 [3] | IC90 [3] | CC50 at 7 days ([4]; Tables 6 and 7 study) | other results |
| --- | --- | --- | --- | --- | --- | --- |
| COc1c(Cl)cc(C(=O)N2CCN(Cc3nc(-c4ccc(C)cc4)no3)CC2)cc1Cl [CMPD-3, (3,5-dichloro-4-methoxyphenyl)(4-((3-(p-tolyl)-1,2,4-oxadiazol-5-yl)methyl)piperazin-1-yl)methanone] | – | – | – | – | – | IC50 [1]: > 100 µM |
| O=C(CNC(=O)COc1ccccc1)NCc1ccc(Cl)cc1 [CMPD-35, N-(4-chlorobenzyl)-2-(2-phenoxyacetamido)acetamide] | > 100 µM | > 100 µM | > 100 µM | > 100 µM | > 100 µM | – |
| COc1ccc(CNC(=O)CNC(=O)COc2ccccc2)cc1 [CMPD-36, N-(4-methoxybenzyl)-2-(2-phenoxyacetamido)acetamide] | > 100 µM | > 100 µM | > 100 µM | > 100 µM | > 100 µM | – |
| O=C(CNC(=O)COc1ccccc1)NCc1ccc(C(F)(F)F)cc1 [CMPD-37, N-(2-oxo-2-((4-(trifluoromethyl)benzyl)amino)ethyl)-2-phenoxyacetamide] | > 100 µM | > 100 µM | > 100 µM | > 100 µM | > 100 µM | – |
| O=C(CNC(=O)COc1ccccc1)NCc1ccccc1 [CMPD-38, N-benzyl-2-(2-phenoxyacetamido)acetamide] | > 100 µM | > 100 µM | > 100 µM | > 100 µM | > 100 µM | – |
| O=C(CNC(=O)COc1ccccc1)NCc1cccc(Cl)c1 [CMPD-39, N-(3-chlorobenzyl)-2-(2-phenoxyacetamido)acetamide] | > 100 µM | > 100 µM | > 100 µM | > 100 µM | > 100 µM | – |
| CN1CCN(C(=O)c2ccc(CNC(=O)CNC(=O)COc3ccccc3)cc2)CC1 [CMPD-40, N-(4-(4-methylpiperazine-1-carbonyl)benzyl)-2-(2-phenoxyacetamido)acetamide] | > 100 µM | > 100 µM | > 100 µM | > 100 µM | > 100 µM | – |
| CC(=O)NCC(=O)NCc1ccc(C(=O)N2CCN(C)CC2)cc1 [CMPD-41, 2-acetamido-N-(4-(4-methylpiperazine-1-carbonyl)benzyl)acetamide] | > 100 µM | > 100 µM | > 100 µM | > 100 µM | > 100 µM | – |
| CN1CCN(C(=O)c2ccc(CNC(=O)CNC(=O)COc3ccc(Cl)cc3)cc2)CC1 [CMPD-42, 2-(4-chlorophenoxy)-N-(2-((4-(4-methylpiperazine-1-carbonyl)benzyl)amino)-2-oxoethyl)acetamide] | > 100 µM | > 100 µM | > 100 µM | > 100 µM | > 100 µM | – |
| COc1ccc(OCC(=O)NCC(=O)NCc2ccc(C(=O)N3CCN(C)CC3)cc2)cc1 [CMPD-43, 2-(4-methoxyphenoxy)-N-(2-((4-(4-methylpiperazine-1-carbonyl)benzyl)amino)-2-oxoethyl)acetamide] | > 100 µM | > 100 µM | > 100 µM | > 100 µM | > 100 µM | – |
| CN1CCN(C(=O)c2ccc(CNC(=O)CNC(=O)COc3ccc(C(F)(F)F)cc3)cc2)CC1 [CMPD-44, N-(4-(4-methylpiperazine-1-carbonyl)benzyl)-2-(2-(4-(trifluoromethyl)phenoxy)acetamido)acetamide] | > 100 µM | > 100 µM | > 100 µM | > 100 µM | > 100 µM | – |
| CC(=O)NCC(=O)NCc1ccc(C(=O)N2CCCCC2)cc1 [CMPD-45, 2-acetamido-N-(4-(piperidine-1-carbonyl)benzyl)acetamide] | > 100 µM | > 100 µM | > 100 µM | > 100 µM | > 100 µM | – |
| O=C(CNC(=O)COc1ccc(Cl)cc1)NCc1ccc(C(=O)N2CCCCC2)cc1 [CMPD-46, 2-(4-chlorophenoxy)-N-(2-oxo-2-((4-(piperidine-1-carbonyl)benzyl)amino)ethyl)acetamide] | 72.6 µM | > 100 µM | 78.1 µM | > 100 µM | > 100 µM | Antiviral index (TC50/IC50) [2]: > 1.38; Antiviral index (TC50/IC50) [3]: > 1.28 |
| COc1ccc(OCC(=O)NCC(=O)NCc2ccc(C(=O)N3CCCCC3)cc2)cc1 [CMPD-47, 2-(4-methoxyphenoxy)-N-(2-oxo-2-((4-(piperidine-1-carbonyl)benzyl)amino)ethyl)acetamide] | 50.8 µM | 96.1 µM | 52.7 µM | 92.7 µM | 73.1 µM | Antiviral index (TC50/IC50) [2]: 1.44; Antiviral index (TC50/IC50) [3]: 1.39 |
| O=C(CNC(=O)COc1ccc(C(F)(F)F)cc1)NCc1ccc(C(=O)N2CCCCC2)cc1 [CMPD-48, N-(2-oxo-2-((4-(piperidine-1-carbonyl)benzyl)amino)ethyl)-2-(4-(trifluoromethyl)phenoxy)acetamide] | 20.6 µM | > 100 µM | 22.5 µM | > 100 µM | > 100 µM | Antiviral index (TC50/IC50) [2]: > 4.86; Antiviral index (TC50/IC50) [3]: > 4.45 |
| COc1ccccc1-c1noc(=O)n1-c1cccc(C(F)(F)F)c1 [ITI-367, 3-(2-methoxyphenyl)-4-[3-trifluoromethyl-phenyl]-1,2,4-oxadiazol-5-one, reference compound] | – | – | – | – | – | Antiviral index (TC50/IC50) [5]: >2.13; IC50 [5, 9]: 47 µM; IC90 [5, 9]: > 100 µM; Antiviral index (TC50/IC50) [6]: >2.39; IC50 [6, 9]: 41.9 µM; IC90 [6, 9]: 96 µM; Antiviral index (TC50/IC50) [7]: >1.33; IC50 [7, 10]: 74.9 µM; IC90 [7, 10]: > 100 µM; CC50 at 7 days ([4]; Table 4 study, PBMCs): > 100 µM |
| CC1(C)CC(NC(=O)C(=O)Nc2ccc(Cl)cc2)CC(C)(C)N1 [NBD-556, N-(4-chlorophenyl), —N′-(2,2,6,6-tetramethylpiperidin-4-yl)-oxalamide, reference compound] | – | – | – | – | – | direct interaction with sensor chip-immobilized HIV-1 MA [8]: no such interaction |

From patent US20130109698A1, “Small Molecule Inhibitors of Functions of the HIV-1 Matrix Protein” (priority 2010, published 2013)
